Measured values published in patent publication US8609695B2, “Methods of treating and/or suppressing insulin resistance” (Endorecherche, Inc., priority 1999, dated 2013).
Where a name gives a salt, the structure may show the parent alone. Values belong to the compound of their own block, whether it stands above or below them.

Assays:
[1] = system: ovariectomized female rats; assay: 34-week treatment with ethynyl estradiol, EM-652.HCl, Raloxifene and DHEA, body fat (Example 7); format: in vivo, rat; details: OVX rats, 34 weeks
Method: The objective of this study was to assess the effect of a combined treatment with EM-652.HCl, and DHEA on body fat and body weight parameters in ovariectomized rats. For this purpose, ovariectomized rats received daily administration of EM-652.HCl (1 mg/kg), and DHEA (80 mg/kg) alone or in combination, for 34 weeks. EM-652.HCl was administered orally while DHEA was applied topically on dorsal skin. One group of animals was orally treated with 17-ethynylestradiol (0.1 mg/kg) and Raloxifene (EM-1105; 1 mg/kg) for comparison.
Ten to twelve week-old female Sprague-Dawley rats (Crl:CD(SD)Br) weighing approximately 235-250 g at start of treatment were used. Eighty rats were randomly distributed between 7 groups of 11 to 12 animals per group as follows: 1) Intact control; 2) OVX control; 3) OVX+EE2 (0.1 mg/kg); 4) OVX+raloxifene (1 mg/kg); 5) OVX+EM-652.HCl (1 mg/kg); 6) OVX+DHEA (80 mg/kg); 7) OVX+EM-652.HCl+DHEA. On day 1 of the study, the animals of the appropriate groups were bilaterally ovariectomized (OVX) under isoflurane anesthesia. EM-652.HCl, raloxifene and EE2 (Steraloids) were administered once daily by oral gavage as suspension in 0.4% methylcellulose (0.5 ml/rat) for 34 weeks while DHEA was applied topically once daily on dorsal skin as a solution in 50% ethanol-50% propylene glycol (0.5 ml/rat) for the same time period. Approximately 24 hours after the last dosing, overnight fasted animals were killed by exsanguination at the abdominal aorta under isoflurane anesthesia. Left and right retroperitoneal adipose tissues were collected and weighed.
After 34 weeks of treatment, individual rats under anesthesia with isoflurane had their whole body skeleton scanned using dual energy x-ray absorptiometry (DEXA; QDR 4500A, Hologic, Waltham, Mass.) and a Regional High Resolution Scan software. The body composition (including fat percentage) was determined.
Data were expressed as the means±SEM.

[2] = system: human endometrial adenocarcinoma Ishikawa cells; assay: Alkaline phosphatase activity in Ishikawa cells (Example 11); format: cell-based; details: for IC50: Homo sapiens, Ishikawa, 120 h, read-out: Inhibition of 1 nM E2 stimulation of alkaline phosphatase by tested compounds IC50; for Stimulation of alkaline phosphatase by tested compounds % of 1 nM E2 stimulation: intrinsic estrogenic activity
Method: The human Ishikawa cell line derived from a well differentiated endometrial adenocarcinoma was kindly provided by Dr. Erlio Gurpide, The Mount Sinai Medical Center, New York, N.Y. The Ishikawa cells were routinely maintained in Eagle's Minimum Essential Medium (MEM) containing 5% (vol/vol) FBS and supplemented with 100 U/ml penicillin, 100 μg/ml streptomycin, 0.1 mM Non-essential Amino Acids solution. Cells were plated in Falcon T75 flasks at a density of 1.5×10^6 cells at 37 C.
Twenty four hours before the start of an experiment, the medium of near confluent Ishikawa cells was replaced by fresh estrogen-free basal medium (EFBM) consisting of a 1:1 (v:v) mixture of phenol red-free Ham's F-12 and Dulbecco's Modified Eagle's Medium (DMEM) supplemented with 100 U/mL penicillin, 100 μg/mL Streptomycin, 2 mM glutamine, and 5% FBS treated twice with dextran-coated charcoal to remove endogenous steroids. Cells were then harvested by 0.1% pancreatin (Sigma) and 0.25 mM HEPES, resuspended in EFBM and plated in Falcon 96 well flat-bottomed microtiter plates at a density of 2.2×10^4 cells/well in a volume of 100 μl and allowed to adhere to the surface of the plates for 24 h. Thereafter, medium was replaced with fresh EFBM containing the indicated concentrations of compounds in a final volume of 200 μl. Cells were incubated for five days, with a medium change after 48 h.
At the end of the incubation period, microtiter plates were inverted and growth medium was decanted. The plates were rinsed with 200 μL by well of PBS (0.15M NaCl, 10 mM sodium phosphate, pH 7.4). PBS was then removed from the plates while carefully leaving some residual PBS, and the wash procedure was repeated once. The buffered saline was then decanted, and the inverted plates were blotted gently on a paper towel. Following replacement of the covers, the plates were placed at −80 C for 15 min followed by thawing at room temperature for 10 min. The plates were then placed on ice, and 50 μl of an ice-cold solution containing 5 mM p-nitrophenyl phosphate, 0.24 mM MgCl2, and 1 M diethanolamine (pH 9.8) was added. Plates were then warmed to room temperature, and the yellow color from the production of p-nitrophenyl was allowed to develop (8 min). Plates were monitored at 405 nm in an enzyme-linked immunosorbent assay plate reader (BIO-RAD, model 2550 EIA Reader).
Dose-response curves as well as IC50 values were calculated using a weighted iterative nonlinear squares regression.

[3] = system: ovariectomized female rats; assay: SERM comparison, energy balance and lipid-lipoprotein metabolism (Example 10); format: in vivo, Rattus norvegicus; details: OVX rats, 20 days; for Serum insulin (in words): 0.5 mg/rat; for Brown adipose tissue Lipoprotein lipase activity / Brown adipose tissue weight / Cumulative food intake / Serum glucose / Serum insulin / Serum leptin / Serum total cholesterol / Serum triglycerides / Soleus muscle Lipoprotein lipase activity / Soleus muscle weight / Total weight / VastusLateralis muscle weight / White adipose tissue inguinal Lipoprotein lipase activity / White adipose tissue inguinal weight / White adipose tissue retroperitoneal Lipoprotein lipase activity / White adipose tissue retroperitoneal weight: high carbohydrate diet, 0.5 mg/rat oral gavage
Method: For this purpose, tested compounds were administered by oral gavage for 20 days (0.5 mg/rat for each compound; 0.5 ml/rat) in 0.4% methylcellulose to ovariectomized female rats.
d) Diet: • During acclimation period, rats received a certified rodent diet (Lab Diet #5002, pellet) and tap water ad libitum while during study period, they received a high carbonhydrate diet (diet #3) and tap water ad libitum. The diet was composed of (g/100 g): Corn starch, 31.2; Dextrose, 31.2; Casein, 20.0; corn oil, 6.4; dl-Methionine, 0.3; Vitamine mix, 1.0; AIN-76 mineral mix, 4.9; fiber, 5.0. Rats were fasted (with access to water only) around 07 h00 the morning of their necropsy Randomization:
Test group: Seventy-seven rats were assigned to 8 groups of 9-10 rats for conduct of the study outlined below.
On day 0 of the study, rats from group 2 to 8 were ovariectomized (by bilateral flank incision) under Isoflurane anesthesia. Rats from group 1 were sham-operated.
Rats were weighed on day 0 (surgery) and then, every 2 days during study period as well as on the day of necropsy.
Food consumption was evaluated every 2 days.
In order to determine the effect of treatments on fat percentage, body composition was measured on Day 17 of the study using dual energy x-ray absorptiometry (DEXA; QDR 4500A, Hologic, Waltham, Mass.).
On day 21 of the study, approximately 24 hours after the last dosing and 6 hours of fasting, animals under Ketamine-Xylazine anesthesia were killed by exsanguination at the abdominal aorta.
Blood lipids (Total cholesterol and Triglycerides) and glucose were measured on frozen serum samples using the Boehringer Mannheim Diagnostic Hitachi 911 Analyzer (Boehringer Mannheim Diagnostic Laboratory Systems). Circulating hormones and substrates (Insulin and leptin) were measured on serum sample using the following kits: • Insulin: Linco RIA kit • Leptin: Linco RIA kit Organs and Tissues Collected
The following tissues were collected and weighed: • Muscle (right soleus and right VLM), fat (right retroperitoneal and right inguinal), and brown adipose tissue.
A piece of ˜0.1 g of all tissues (except uterus and vagina) were frozen in liquid nitrogen and kept at −80 C for later determination of lipoprotein-lipase (LPL) activity.

[4] = system: ovariectomized female rats; assay: Uterine weight, fat and lipid, 20-day treatment (Example 13); format: in vivo, Rattus norvegicus; details: 20 days
Method: The objective of this study was to compare the effect on uterine, weight, fat and blood lipids following treatment with EM-652.HCl, ERA-923 and lasofoxifene, administered alone or in combination with EM-652.HCl, to ovariectomized female rats. For this purpose, each compound was administered orally for 20 days to ovariectomized female rats and at the end of the treatment period, the uterus and fat were collected and weighed.
d) Diet: • Certified Rodent feed (Lab Diet #5002, pellets) and tap water were provided ad libitum. Randomization:
Seventy rats were separated into 7 groups of 9 to 11 animals for conduct of the study outlined below:
Animals from groups 2 to 9 were ovariectomized under Isoflurane-induced anesthesia on Day 7 of the study.
The vehicle or tested compounds were given as suspension in 0.4% methylcellulose by oral gavage (0.5 ml/gavage/rat) from Day 2 to Day 21 of the study.
Rats were weighed on Study Day 1 and at the necropsy (SD 22).
Approximately 24 hours after the last dosing, overnight fasted rats under Isoflurane-induced anesthesia were killed by exsanguination at the abdominal aorta.
Uteri and retroperitonal adipose tissue were removed and weighed.

[5] = EE2 0.1, Raloxifene 1, EM-652.HCl 1 mg/kg oral, DHEA 80 mg/kg topical
[6] = Ishikawa cells, five days incubation
[7] = OVX rats, commercial rodent diet, 0.5 mg oral, EM-652.HCl 2.5 mg in combinations

Structure (SMILES): C#C[C@]1(O)CC[C@H]2[C@@H]3CCc4cc(O)ccc4[C@H]3CC[C@@]21C [EE2, 17-ethynylestradiol]
- increment of body fat and retroperitoneal adipose tissue by ovariectomy [1]: prevented
- Fat % ([1]; DEXA, EE2 0.1, Raloxifene 1, EM-652.HCl 1 mg/kg oral, DHEA 80 mg/kg topical): 19.8 ± 1.9%
- Left retroperitoneal adipose tissue [1, 5]: 1.15 ± 0.18 g
- Right retroperitoneal adipose tissue [1, 5]: 1.29 ± 0.22 g

- IC50 [2]: 291 ± 115 nM
Structure (SMILES): CC/C(=C(/c1ccc(OCCN(C)C)cc1)c1cccc(O)c1)c1ccccc1 [Droloxifene]
- Stimulation of alkaline phosphatase by tested compounds % of 1 nM E2 stimulation [2, 6]: 23.8 ± 3.1 (7) % of 1 nM E2 stimulation

- Inhibition of 1 nM E2 stimulation of alkaline phosphatase by tested compounds IC50 ([2]; Ishikawa cells, five days incubation, 1 nM E2, antiestrogenic activity): No inhibition
Structure (SMILES): CC/C(=C(\c1ccccc1)c1ccc(/C=C/C(=O)O)cc1)c1ccccc1 [GW-5638]
- Stimulation of alkaline phosphatase by tested compounds % of 1 nM E2 stimulation [2, 6]: 7.75 ± 5.5 (2) % of 1 nM E2 stimulation

Structure (SMILES): COc1ccc(-c2sc3cc(O)ccc3c2Oc2ccc(OCCN3CCCCC3)cc2)cc1.Cl [LY 353381]
- Serum insulin (in words) [3]: decreased
- Brown adipose tissue Lipoprotein lipase activity [3]: 888 ± 65 μU/g protein
- Brown adipose tissue weight [3]: 0.368 ± 0.031 g
- Cumulative food intake [3]: 312 ± 7 g
- Serum glucose [3]: 17.1 ± 0.7 mmol/L
- Serum insulin [3]: 0.104 ± 0.11 nmol/L
- Serum leptin [3]: 1.22 ± 0.21 ng/mL
- Serum total cholesterol [3]: 1.15 ± 0.08 mmol/L
- Serum triglycerides [3]: 1.23 ± 0.28 mmol/L
- Soleus muscle Lipoprotein lipase activity [3]: 10.1 ± 1.0 μU/g protein
- Soleus muscle weight [3]: 0.092 ± 0.002 g
- Total weight [3]: 231 ± 4 g
- VastusLateralis muscle weight [3]: 0.955 ± 0.20 g
- White adipose tissue inguinal Lipoprotein lipase activity [3]: 559 ± 165 μU/g protein
- White adipose tissue inguinal weight [3]: 0.290 ± 0.038 g
- White adipose tissue retroperitoneal Lipoprotein lipase activity [3]: 1365 ± 119 μU/g protein
- White adipose tissue retroperitoneal weight [3]: 0.968 ± 0.120 g

- IC50 [2]: 31.9 ± 6 nM
Structure (SMILES): CC/C(=C(\c1ccc(O)cc1)c1ccc(OCCN(C)C)cc1)c1ccccc1 [OH-Tamoxifen]
- Stimulation of alkaline phosphatase by tested compounds % of 1 nM E2 stimulation [2, 6]: 32.4 ± 2.2 (8) % of 1 nM E2 stimulation

Structure (SMILES): CN(C)CCOc1ccc(/C(=C(/CCCl)c2ccccc2)c2ccc(O)cc2)cc1 [OH-Toremifene]
- Stimulation of alkaline phosphatase by tested compounds % of 1 nM E2 stimulation [2, 6]: 29.6 ± 2.1 (6) % of 1 nM E2 stimulation

- IC50 [2]: > 1000 nM
Structure (SMILES): CC/C(=C(\c1ccc(I)cc1)c1ccc(OCCN2CCCC2)cc1)c1ccccc1 [Idoxifene]
- Stimulation of alkaline phosphatase by tested compounds % of 1 nM E2 stimulation [2, 6]: 25.1 ± 1.5 (5) % of 1 nM E2 stimulation

- increase of uterine weight compared to OVX control ([4]; 0.5 mg): 62%
- Uterine Weight [4, 7]: 247.4 ± 9.1 mg
Structure (SMILES): Oc1ccc2c(c1)CC[C@H](c1ccccc1)[C@@H]2c1ccc(OCCN2CCCC2)cc1 [Lasofoxifene, cis-1R-[4′-pyrrolidino-ethoxyphenyl]-2S-phenyl-6-hydroxy-1,2,3,4,-tetrahydronapthalene D-(−)-tartrate salt]
- OVX-induced increase in total serum cholesterol levels ([4]; 0.5 mg): completely prevented
- prevention of body weight increase induced by ovariectomy ([4]; OVX rats, 0.5 mg): 127%
- Cholesterol [4, 7]: 0.95 ± 0.09 mmol/L
- Final Body Weight [4, 7]: 210 ± 3 g
- Stimulation of alkaline phosphatase by tested compounds % of 1 nM E2 stimulation [2, 6]: 18 % of 1 nM E2 stimulation
- Serum insulin (in words) [3]: decreased
- Brown adipose tissue Lipoprotein lipase activity [3]: 982 ± 98 μU/g protein
- Brown adipose tissue weight [3]: 0.244 ± 0.022 g
- Cumulative food intake [3]: 283 ± 14 g
- Serum glucose [3]: 15.8 ± 1.3 mmol/L
- Serum insulin [3]: 0.095 ± 0.017 nmol/L
- Serum leptin [3]: 0.97 ± 0.29 ng/mL
- Serum total cholesterol [3]: 1.29 ± 0.06 mmol/L
- Serum triglycerides [3]: 0.81 ± 0.21 mmol/L
- Soleus muscle Lipoprotein lipase activity [3]: 10.9 ± 1.5 μU/g protein
- Soleus muscle weight [3]: 0.096 ± 0.003 g
- Total weight [3]: 210 ± 2 g
- VastusLateralis muscle weight [3]: 0.800 ± 0.048 g
- White adipose tissue inguinal Lipoprotein lipase activity [3]: 801 ± 138 μU/g protein
- White adipose tissue inguinal weight [3]: 0.187 ± 0.023 g
- White adipose tissue retroperitoneal Lipoprotein lipase activity [3]: 1417 ± 163 μU/g protein
- White adipose tissue retroperitoneal weight [3]: 0.867 ± 0.132 g
